According to patent US7405307B2, “Biphenylcarboxamides useful as lipid lowering agents” (Janssen Pharmaceutica N.V., priority 2000, dated 2008):

Legend:
[1] = test system: ApoB secretion, HepG2 cells; experiment: Quantification of the secretion of ApoB; format: cell-based; details: Homo sapiens, 24 hours of incubation with test compound, apoB immunoprecipitation, read-out: pIC50 values (= −log IC50 value) (converted)
Description: C. Pharmacological Examples C.1. Quantification of the Secretion of ApoB.
HepG2 cells were cultured in 24-well plates in MEM Rega 3 containing 10% fetal calf serum. At 70% confluency, the medium was changed and the test compound or carrier (DMSO, 0.4% final concentration) was added. After 24 hours of incubation, the medium was transferred to Eppendorf tubes and cleared by centrifugation. A sheep antibody directed against either apoB was added to the supernatant and the mixture was kept at 8° C. for 24 hours. Then, rabbit anti-sheep antibody was added and the immune complex was allowed to precipitate for 24 hours at 8° C. The immunoprecipitate was pelleted by centrifugation for 25 minutes at 1320 g and washed twice with a buffer containing 40 mM Mops, 40 mM NaH2PO4, 100 mM NaF, 0.2 mM DTT, 5 mM EDTA, 5 mM EGTA, 1% Triton-X-100, 0.5% sodium deoxycholate (DOC), 0.1% SDS, 0.2 μM leupeptin and 0.2 μM PMSF. Radioactivity in the pellet was quantified by liquid scintillation counting.
Resulting IC50 values are enumerated in Table C.1

IC50 [1] [nM] | melting point [°C] | SMILES
566 | – | CCOC(=O)C(c1ccccc1)N(C)CCN(C)c1ccc(NC(=O)c2ccccc2-c2ccc(C(F)(F)F)cc2)cc1 (stereo not shown) [Compound 9]
948 | – | CCCNC(=O)C(NC1CCN(c2ccc(NC(=O)c3ccccc3-c3ccc(C(F)(F)F)cc3)cc2)CC1)c1ccccc1 (stereo not shown) [Compound 115]
948 | – | CCCNC(=O)C(NCCCNc1ccc(NC(=O)c2ccccc2-c2ccc(C(F)(F)F)cc2)cc1)c1ccccc1 (stereo not shown) [Compound 25]
183 | – | CCOC(=O)C(NC1CCN(c2ccc(NC(=O)c3ccccc3-c3ccc(C(F)(F)F)cc3)cc2)C1)c1ccccc1 (stereo not shown) [Compound 105]
1970 | – | CCCNC(=O)C(c1ccccc1)N(C)CCCN(C)c1ccc(NC(=O)c2ccccc2-c2ccc(C(F)(F)F)cc2)cc1 (stereo not shown) [Compound 26]
1930 | – | CCNC(=O)C(c1ccccc1)N(C)CCCN(C)c1ccc(NC(=O)c2ccccc2-c2ccc(C(F)(F)F)cc2)cc1 (stereo not shown) [Compound 20]
39.4 | – | CCNC(=O)C(c1ccccc1)N(C)C1CCN(c2ccc(NC(=O)c3ccccc3-c3ccc(C(F)(F)F)cc3)cc2)C1 (stereo not shown) [Compound 112]
10.7 | – | CCNC(=O)C(NC1CCN(c2ccc(NC(=O)c3ccccc3-c3ccc(C(F)(F)F)cc3)cc2)C1)c1ccccc1 (stereo not shown) [Compound 113]
1030 | – | CCNC(=O)C(NCC(C)(C)CNc1ccc(NC(=O)c2ccccc2-c2ccc(C(F)(F)F)cc2)cc1)c1ccccc1 (stereo not shown) [Compound 22]
948 | – | CCOC(=O)C(NCC(C)(C)CNc1ccc(NC(=O)c2ccccc2-c2ccc(C(F)(F)F)cc2)cc1)c1ccccc1 (stereo not shown) [Compound 10]
69 | – | CCCOC(=O)C(c1ccccc1)N(C)C1CCN(c2ccc(NC(=O)c3ccccc3-c3ccc(C(F)(F)F)cc3)cc2)C1 (stereo not shown) [Compound 108]
348 | – | CCNC(=O)C(NC1CCN(c2ccc(NC(=O)c3ccccc3-c3ccc(C(F)(F)F)cc3)cc2)CC1)c1ccccc1 (stereo not shown) [Compound 111]
488 | – | CCCOC(=O)C(NCCCNc1ccc(NC(=O)c2ccccc2-c2ccc(C(F)(F)F)cc2)cc1)c1ccccc1 (stereo not shown) [Compound 13]
150 | – | CCCOC(=O)C(NC1CCN(c2ccc(NC(=O)c3ccccc3-c3ccc(C(F)(F)F)cc3)cc2)C1)c1ccccc1 (stereo not shown) [Compound 109]
330 | – | CCOC(=O)C(NCCNc1ccc(NC(=O)c2ccccc2-c2ccc(C(F)(F)F)cc2)cc1)c1ccccc1 (stereo not shown) [Compound 7]
– | 142 | COC(=O)C(NC/C=C/c1ccc(NC(=O)c2ccccc2-c2ccc(C(F)(F)F)cc2)cc1)c1ccccc1 (stereo not shown) [Compound 137]
1020 | – | COC(=O)C(NCC(C)(C)CNc1ccc(NC(=O)c2ccccc2-c2ccc(C(F)(F)F)cc2)cc1)c1ccccc1 (stereo not shown) [Compound 5]
1580 | – | COC(=O)C(NC1CCN(c2ccc(NC(=O)c3ccccc3-c3ccc(C(F)(F)F)cc3)cc2)CC1)c1ccccc1 (stereo not shown) [Compound 98]
2610 | – | CCCNC(=O)C(c1ccccc1)N1CCC(Nc2ccc(NC(=O)c3ccccc3-c3ccc(C(F)(F)F)cc3)cc2)CC1 (stereo not shown) [Compound 114]
1600 | – | CCOC(=O)C(NC1CCN(c2ccc(NC(=O)c3ccccc3-c3ccc(C(F)(F)F)cc3)cc2)CC1)c1ccccc1 (stereo not shown) [Compound 103]
41.7 | – | COC(=O)C(c1ccccc1)N(C)C1CCN(c2ccc(NC(=O)c3ccccc3-c3ccc(C(F)(F)F)cc3)cc2)C1 (stereo not shown) [Compound 100]
938 | – | CCCOC(=O)C(c1ccccc1)N(C)CCCN(C)c1ccc(NC(=O)c2ccccc2-c2ccc(C(F)(F)F)cc2)cc1 (stereo not shown) [Compound 14]
1570 | – | CCNC(=O)C(NC1CCC(Nc2ccc(NC(=O)c3ccccc3-c3ccc(C(F)(F)F)cc3)cc2)CC1)c1ccccc1 (stereo not shown) [Compound 23]
< 30 | – | CCNC(=O)C(NCCNc1ccc(NC(=O)c2ccccc2-c2ccc(C(F)(F)F)cc2)cc1)c1ccccc1 (stereo not shown) [Compound 18]
98.4 | – | COC(=O)C(c1ccccc1)N(C)CCN(C)c1ccc(NC(=O)c2ccccc2-c2ccc(C(F)(F)F)cc2)cc1 (stereo not shown) [Compound 4]

IC50 [1] [nM] | melting point [°C] | SMILES
171 | – | CCCNC(=O)C(NCCNc1ccc(NC(=O)c2ccccc2-c2ccc(C(F)(F)F)cc2)cc1)c1ccccc1 (stereo not shown) [Compound 24]
> 3000 | – | CCOC(=O)C(c1ccccc1)N1CCC(Nc2ccc(NC(=O)c3ccccc3-c3ccc(C(F)(F)F)cc3)cc2)CC1 (stereo not shown) [Compound 102]
2070 | – | COC(=O)C(NC1CCC(Nc2ccc(NC(=O)c3ccccc3-c3ccc(C(F)(F)F)cc3)cc2)CC1)c1ccccc1 (stereo not shown) [Compound 6]
40.9 | – | COC(=O)C(NC1CCN(c2ccc(NC(=O)c3ccccc3-c3ccc(C(F)(F)F)cc3)cc2)C1)c1ccccc1 (stereo not shown) [Compound 101]
689 | – | CCCOC(=O)C(NCCNc1ccc(NC(=O)c2ccccc2-c2ccc(C(F)(F)F)cc2)cc1)c1ccccc1 (stereo not shown) [Compound 12]
229 | – | CCNC(=O)C(NCCCNc1ccc(NC(=O)c2ccccc2-c2ccc(C(F)(F)F)cc2)cc1)c1ccccc1 (stereo not shown) [Compound 19]
753 | – | CCCNC(=O)C(NC1CCC(Nc2ccc(NC(=O)c3ccccc3-c3ccc(C(F)(F)F)cc3)cc2)CC1)c1ccccc1 (stereo not shown) [Compound 29]
1570 | – | CCCOC(=O)C(NC1CCN(c2ccc(NC(=O)c3ccccc3-c3ccc(C(F)(F)F)cc3)cc2)CC1)c1ccccc1 (stereo not shown) [Compound 107]
< 30 | – | CCCNC(=O)C(NC1CCN(c2ccc(NC(=O)c3ccccc3-c3ccc(C(F)(F)F)cc3)cc2)C1)c1ccccc1 (stereo not shown) [Compound 117]
1490 | – | CCCNC(=O)C(NCC(C)(C)CNc1ccc(NC(=O)c2ccccc2-c2ccc(C(F)(F)F)cc2)cc1)c1ccccc1 (stereo not shown) [Compound 28]
1370 | – | CCOC(=O)C(NC1CCC(Nc2ccc(NC(=O)c3ccccc3-c3ccc(C(F)(F)F)cc3)cc2)CC1)c1ccccc1 (stereo not shown) [Compound 11]
506 | – | CCNC(=O)C(c1ccccc1)N(C)CCN(C)c1ccc(NC(=O)c2ccccc2-c2ccc(C(F)(F)F)cc2)cc1 (stereo not shown) [Compound 21]
1170 | – | CCNC(=O)C(c1ccccc1)N1CCC(Nc2ccc(NC(=O)c3ccccc3-c3ccc(C(F)(F)F)cc3)cc2)CC1 (stereo not shown) [Compound 110]
3000 | – | CCCOC(=O)C(c1ccccc1)N1CCC(Nc2ccc(NC(=O)c3ccccc3-c3ccc(C(F)(F)F)cc3)cc2)CC1 (stereo not shown) [Compound 106]
1260 | – | CCCOC(=O)C(NCC(C)(C)CNc1ccc(NC(=O)c2ccccc2-c2ccc(C(F)(F)F)cc2)cc1)c1ccccc1 (stereo not shown) [Compound 16]
129 | – | CCOC(=O)C(NCCCNc1ccc(NC(=O)c2ccccc2-c2ccc(C(F)(F)F)cc2)cc1)c1ccccc1 (stereo not shown) [Compound 8]
757 | – | CCCOC(=O)C(c1ccccc1)N(C)CCN(C)c1ccc(NC(=O)c2ccccc2-c2ccc(C(F)(F)F)cc2)cc1 (stereo not shown) [Compound 15]
94.8 | – | CCCNC(=O)C(c1ccccc1)N(C)C1CCN(c2ccc(NC(=O)c3ccccc3-c3ccc(C(F)(F)F)cc3)cc2)C1 (stereo not shown) [Compound 116]
< 30 | – | CCOC(=O)C(c1ccccc1)N(C)C1CCN(c2ccc(NC(=O)c3ccccc3-c3ccc(C(F)(F)F)cc3)cc2)C1 (stereo not shown) [Compound 104]
766 | – | COC(=O)C(c1ccccc1)N(C)CCCN(C)c1ccc(NC(=O)c2ccccc2-c2ccc(C(F)(F)F)cc2)cc1 (stereo not shown) [Compound 3]
317 | – | COC(=O)C(NCCCNc1ccc(NC(=O)c2ccccc2-c2ccc(C(F)(F)F)cc2)cc1)c1ccccc1 (stereo not shown) [Compound 2]
809 | – | CCCOC(=O)C(NC1CCC(Nc2ccc(NC(=O)c3ccccc3-c3ccc(C(F)(F)F)cc3)cc2)CC1)c1ccccc1 (stereo not shown) [Compound 17]
71 | – | COC(=O)C(NCCNc1ccc(NC(=O)c2ccccc2-c2ccc(C(F)(F)F)cc2)cc1)c1ccccc1 (stereo not shown) [Compound 1]
625 | – | CCCNC(=O)C(c1ccccc1)N(C)CCN(C)c1ccc(NC(=O)c2ccccc2-c2ccc(C(F)(F)F)cc2)cc1 (stereo not shown) [Compound 27]
